For three compounds, CC50, Activity and Drug uptake results are on record in ChEMBL document CHEMBL5036312, “From the Design to the In Vivo Evaluation of Benzohomoadamantane-Derived Soluble Epoxide Hydrolase Inhibitors for the Treatment of Acute Pancreatitis” (J Med Chem, 2021).

The source made the active and inactive calls. The rule behind the calls is not given here.

In one data set the test system is SH-SY5Y. In words: cells. The conditions noted are these: Homo sapiens, 24 h, read-out: LD50.
Data set [1] is described as follows: Toxicity in overnight fasted C57BL/6 mouse model of cerulein-induced acute pancreatitis assessed as reversal of edema at 0.3 mg/kg, ip dosed 14 hrs after cerulein injection and measured 10 hrs after compound administration. The class given is organism-based. The conditions noted are these: in vivo.
A short description of data set [2]: Drug uptake in overnight fasted pancreas of cerulein-induced acute pancreatitis C57BL/6 mouse model at 0.1 mg/kg, ip dosed 14 hrs after cerulein injection and measured 10 hrs after compound administration. The class given is ADME, organism-based. The conditions noted are these: in vivo.
Data set [3] in a line: Toxicity in overnight fasted C57BL/6 mouse model of cerulein-induced acute pancreatitis assessed as increase in body weight at 0.3 mg/kg, ip dosed 14 hrs after cerulein injection and measured 10 hrs after compound administration. The conditions noted are these: in vivo. The class given is organism-based.
Data set [4] is described as follows: Toxicity in overnight fasted C57BL/6 mouse model of cerulein-induced acute pancreatitis assessed as increase in body weight at 0.1 mg/kg, ip dosed 14 hrs after cerulein injection and measured 10 hrs after compound administration. The class given is organism-based. The conditions noted are these: in vivo.
In data set [5] the test system is Mus musculus. In words: Anti-inflammatory activity against overnight fasted cerulein-induced acute pancreatitis C57BL/6 mouse model assessed as reduction in inflammatory cells at 0.1 to 0.3 mg/kg, ip dosed 14 hrs after cerulein injection and measured 10 hrs after compound administration. The class given is functional, organism-based. The conditions noted are these: dose 0.1-0.3 mg/kg.

The test system of data set [6] is Mus musculus. In words: Anti-inflammatory activity against overnight fasted cerulein-induced acute pancreatitis C57BL/6 mouse model assessed as reduction in parenchymal atrophy at 0.1 to 0.3 mg/kg, ip dosed 14 hrs after cerulein injection and measured 10 hrs after compound administration. The class given is functional, organism-based. The conditions noted are these: dose 0.1-0.3 mg/kg.

Data set [7] concerns Mus musculus. In words: Anti-inflammatory activity against overnight fasted cerulein-induced acute pancreatitis C57BL/6 mouse model assessed as reversal of reversal of neutrophil infiltration at 0.3 mg/kg, ip dosed 14 hrs after cerulein injection and measured 10 hrs after compound administration. The class given is functional, organism-based.
Data set [8] concerns Mus musculus. As to the kind of experiment: Anti-inflammatory activity against overnight fasted cerulein-induced acute pancreatitis C57BL/6 mouse model assessed as reversal of pancreatic damage at 0.3 mg/kg, ip dosed 14 hrs after cerulein injection and measured 10 hrs after compound administration. The class given is functional, organism-based.
Data set [9] relates to Mus musculus. In words: Anti-inflammatory activity against overnight fasted cerulein-induced acute pancreatitis C57BL/6 mouse model assessed as reduction in severity of pancreatitis at 0.1 to 0.3 mg/kg, ip dosed 14 hrs after cerulein injection and measured 10 hrs after compound administration. The class given is functional, organism-based. The conditions noted are these: dose 0.1-0.3 mg/kg.

Description for SH-SY5Y: Cytotoxicity against human SH-SY5Y cells assessed as lethal dose measured after 24 hrs by propidium iodide staining based fluorescent assay

In the case of `CC12CC3CC(NC(=O)N[C@H]4CC[C@H](Oc5ccc(C(=O)O)cc5)CC4)(CC(C1)c1ccccc13)C2`, the CC50 in the data set on SH-SY5Y was more than 100 µM.

As for `O=C(NC12CC3CC(F)(CC(C1)c1ccccc13)C2)N[C@H]1CC[C@H](Oc2ccc(C(=O)O)cc2)CC1`, the CC50 in the data set on SH-SY5Y is more than 100 µM.

`O=C(NC12CC3CC(Cl)(CC(C1)c1ccccc13)C2)N[C@H]1CC[C@H](Oc2ccc(C(=O)O)cc2)CC1`: the Activity result in data set [1] is given as “Non-Toxic”; in [3] it was “Toxic”; in data set [4], “Toxic”. Moreover, in data set [2], the Drug uptake entry is given as “Not Active”. The outcome in the data set on Mus musculus [5], with Mus musculus [6], in the data set on Mus musculus [7], in the data set with Mus musculus [8] and in the data set with Mus musculus [9] was Active. In the data set with SH-SY5Y, the CC50 was more than 100 µM.
